Data on 15 compounds can be found in ChEMBL document CHEMBL1151533, “Dihydropyrimidine calcium channel blockers 51: bicyclic dihydropyrimidines as potent mimics of dihydropyridines” (Bioorg Med Chem Lett, 1991).

Structures are written as SMILES.

One assay is filed under the species Oryctolagus cuniculus. Briefly: Compound was evaluated for vasorelaxant activity determined using potassium-depolarized rabbit thoracic aorta. The format is functional.
The next assay relates to Rattus norvegicus. Briefly: In vivo antihypertensive activity of compound was determined at 45 umol/kg administered orally in spontaneously hypertensive rats; % reduction in blood pressure. Type of assay: functional.

In the assay filed under Oryctolagus cuniculus, `CCO/C(O)=C1/C(C)=Nc2nccn2C1c1cccc(Cl)c1Cl` (configuration not stated) gave an IC50 of 96 nM.

`CC1=Nc2cc(=O)n(Cc3ccccc3)n2C(c2cccc([N+](=O)[O-])c2)/C1=C(/O)OC(C)C` (configuration not stated) returned an IC50 in the assay filed under Oryctolagus cuniculus of 5 nM.

Turning to `CCCNC(=O)n1c(=O)cc2n1C(c1cccc([N+](=O)[O-])c1)/C(=C(/O)OC(C)C)C(C)=N2` (configuration not stated), inhibition in the assay filed under Oryctolagus cuniculus was half-maximal at 23 nM (IC50).

Turning to `CCOC(=O)N1C(=S)N=C(C)/C(=C(/O)OCC)C1c1cccc([N+](=O)[O-])c1` (configuration not stated), in the assay filed under Oryctolagus cuniculus, the midpoint of inhibition, the IC50, lay at 3 nM.

`CCO/C(O)=C1/C(C)=Nc2c(C#N)cnn2C1c1cccc(Cl)c1Cl` (configuration not stated) gave a Reduction with Rattus norvegicus of 20%. This compound came in with an IC50 in the assay listed under Oryctolagus cuniculus of 1.5 nM.

The compound `CC1=Nc2cc(=O)n(S(=O)(=O)c3ccccc3)n2C(c2cccc([N+](=O)[O-])c2)/C1=C(/O)OC(C)C` (configuration not stated) registered an IC50 in the assay filed under Oryctolagus cuniculus of 10 nM.

Compound `CC1=Nc2cc(=O)n(C(=O)c3ccccc3)n2C(c2cccc([N+](=O)[O-])c2)/C1=C(/O)OC(C)C` (configuration not stated) registered an IC50 in the assay filed under Oryctolagus cuniculus of 54 nM.

In the assay listed under Oryctolagus cuniculus, `CCO/C(O)=C1/C(C)=Nc2nc(SC)nn2C1c1cccc(Cl)c1Cl` (configuration not stated) showed an IC50 of 620 nM.

Turning to `CC1=Nc2cc(=O)[nH]n2C(c2cccc([N+](=O)[O-])c2)/C1=C(/O)OC(C)C` (configuration not stated), half-maximal inhibition in the assay listed under Oryctolagus cuniculus (IC50) required 318 nM.

`COC(=O)C1=C(C)NC(C)=C(C(=O)OC)C1c1ccccc1[N+](=O)[O-]` [NIFEDIPINE] registered a Reduction with Rattus norvegicus of 33%. In addition, the IC50 in the assay filed under Oryctolagus cuniculus worked out at 2.5 nM.

`CCO/C(O)=C1/C(C)=Nc2ccnn2C1c1cccc(Cl)c1Cl` (configuration not stated) yielded an IC50 in the assay filed under Oryctolagus cuniculus of 21 nM.

In the assay filed under Oryctolagus cuniculus, `CCOC(=O)C1=C(C)N=C2NCCCN2C1c1cccc(Cl)c1Cl` (configuration not stated) registered an IC50 of 2890 nM.

As to `COC(=O)c1cnn2c1N=C(C)/C(=C(\O)OC(C)C)C2c1cccc([N+](=O)[O-])c1` (configuration not stated), the midpoint of inhibition in the assay listed under Oryctolagus cuniculus, the IC50, lay at 1160 nM.

On to `CC1=Nc2c(C#N)cnn2C(c2cccc([N+](=O)[O-])c2)/C1=C(/O)OC(C)C` (configuration not stated), for which, in the assay listed under Oryctolagus cuniculus, the concentration for half-maximal inhibition (IC50) was determined as 7 nM.

In the case of `CC1=Nc2c(C(N)=O)cnn2C(c2cccc([N+](=O)[O-])c2)/C1=C(/O)OC(C)C` (configuration not stated), the IC50 in the assay filed under Oryctolagus cuniculus is > 1000 nM.
